Laboratory results reported in the supplement of paper PMC10307832.

Tests used:
Test in all cases: relative viability (nuclei count vs DMSO), 5 days (fraction); higher = more cells survive
[1] = compound: COc1cc(Nc2ncc(F)c(Nc3ccc4c(n3)NC(=O)C(C)(C)O4)n2)cc(OC)c1OC [R406] + O=C(CCCCCCC(=O)Nc1ccccc1)NO [Vorinostat] (partner 1 µM)
Summary of the method: (§1)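 Relative viability was taken as the ratio of nuclei in treated wells to nuclei in vehicle wells. Lung cancer cell lines in 1536-well plates received compounds by pin tool one day after seeding, either one drug alone or a fixed anchor-drug dose plus five library-drug doses (not always all listed) in √10 steps. Nuclei were counted on 4× images after 5 days of treatment, and values are medians of duplicate plates.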

[2] = compound: O=C(/C=C/c1cccnc1)NCCCCC1CCN(C(=O)c2ccccc2)CC1 [Daporinad] + O=C(CCCCCCC(=O)Nc1ccccc1)NO [Vorinostat] (partner 1 µM)
Summary of the method: as §1

[3] = compound: O=C(/C=C/c1cccnc1)NCCCCC1CCN(C(=O)c2ccccc2)CC1 [Daporinad] + Nc1ncn([C@H]2C[C@H](O)[C@@H](CO)O2)c(=O)n1 [Decitabine] (partner 2 µM)
Summary of the method: as §1

[4] = compound: O=C(/C=C/c1cccnc1)NCCCCC1CCN(C(=O)c2ccccc2)CC1 [Daporinad] + Cc1nc(Nc2ncc(C(=O)Nc3c(C)cccc3Cl)s2)cc(N2CCN(CCO)CC2)n1 [Dasatinib] (partner 0.075 µM)
Summary of the method: as §1

Row | Cell Line | relative viability ([1]; first compound 0.08 µM) | relative viability ([1]; first compound 0.253 µM) | relative viability ([1]; first compound 0.8 µM) | relative viability ([1]; first compound 2.53 µM) | relative viability ([1]; first compound 8 µM) | relative viability ([2]; first compound 0.0005 µM) | relative viability ([2]; first compound 0.001581 µM) | relative viability ([2]; first compound 0.005 µM) | relative viability ([2]; first compound 0.01581 µM) | relative viability ([3]; first compound 0.0005 µM) | relative viability ([3]; first compound 0.001581 µM) | relative viability ([3]; first compound 0.005 µM) | relative viability ([3]; first compound 0.01581 µM) | relative viability ([4]; first compound 0.0005 µM) | relative viability ([4]; first compound 0.001581 µM) | relative viability ([4]; first compound 0.005 µM) | relative viability ([4]; first compound 0.01581 µM)
1 | NCI-H2023 | 0.732 | 0.784 | 0.618 | 0.391 | 0.312 | 0.848 | 0.667 | 0.715 | 0.631 | 0.208 | 0.247 | 0.247 | 0.232 | 0.504 | 0.711 | 0.631 | 0.72
2 | NCI-H2085 | 0.749 | 0.8 | 0.847 | 0.691 | 0.561 | 0.737 |  | 0.92 | 0.966 | 0.486 |  | 0.59 | 0.573 | 0.268 | 0.244 | 0.267 | 0.284
3 | NCI-H2087 | 0.43 | 0.741 | 0.885 | 0.646 | 0.954 | 0.89 | 0.645 | 0.576 | 0.792 | 0.264 | 0.317 | 0.329 | 0.277 | 0.787 | 1.17 | 0.934 | 0.923
4 | NCI-H2126 | 0.833 | 0.797 | 0.819 | 0.581 | 0.707 | 0.862 | 0.836 | 0.948 | 0.91 | 0.618 | 0.524 | 0.638 | 0.584 | 0.681 | 0.57 | 0.547 | 0.727
5 | NCI-H2170 | 0.799 | 0.791 | 0.987 | 0.571 | 0.658 | 0.769 | 0.81 | 0.827 | 0.822 | 0.491 | 0.446 | 0.444 | 0.439 | 0.631 | 0.465 | 0.616 | 0.566
6 | NCI-H2342 | 0.694 | 0.84 | 0.699 | 0.752 | 0.74 | 0.806 | 0.791 | 0.695 | 0.815 | 0.814 | 0.58 | 0.67 | 0.72 | 0.316 | 0.299 | 0.339 | 0.295
7 | NCI-H2347 | 0.586 | 0.651 | 0.767 | 0.383 | 0.397 | 0.586 | 0.754 | 0.601 | 0.616 | 0.457 | 0.721 | 0.619 | 0.578 | 0.326 | 0.308 | 0.342 | 0.299
8 | NCI-H2405 | 1 | 1.39 | 1.14 | 0.624 | 0.245 | 0.851 | 1.06 | 0.874 | 0.31 | 0.796 | 0.807 | 0.751 | 0.379 | 0.168 | 0.226 | 0.231 | 0.252
9 | NCI-H3122 | 0.884 | 1.1 | 1.03 | 0.923 | 0.928 | 0.938 | 1.14 | 1.03 | 0.898 | 0.308 | 0.417 | 0.392 | 0.321 | 0.664 | 0.73 | 0.807 | 0.59
10 | PC-3 [JPC-3] | 0.811 | 1.01 | 0.861 | 0.546 | 0.381 | 0.604 | 0.818 | 1.06 | 0.921 | 0.84 | 0.781 | 0.91 | 0.907 | 0.928 | 1.01 | 0.943 | 0.947
11 | PC-14 | 0.71 | 0.84 | 0.975 | 0.523 | 0.451 | 0.519 | 0.863 | 0.898 | 0.472 | 0.189 | 0.199 | 0.23 | 0.144 | 0.276 | 0.315 | 0.293 | 0.363
12 | RERF-LC-KJ | 0.669 | 0.811 | 0.732 | 0.583 | 0.552 | 0.659 | 0.795 | 0.814 | 0.701 | 0.565 | 0.697 | 0.758 | 0.827 | 0.757 | 0.804 | 0.975 | 0.804
13 | SK-LU-1 | 0.84 | 0.822 | 0.764 | 0.555 | 0.155 | 0.851 | 0.85 | 0.919 | 0.788 | 0.656 | 0.683 | 0.671 | 0.692 | 0.209 | 0.184 | 0.204 | 0.235
14 | SK-MES-1 | 1.05 | 1.14 | 1.21 | 0.996 | 0.158 | 1 | 1.2 | 1.26 | 1.01 | 0.377 | 0.374 | 0.383 | 0.375 | 0.417 | 0.474 | 0.315 | 0.437
15 | SW 900 | 0.475 | 0.844 | 0.577 | 0.134 | 0.15 | 0.461 |  | 0.86 | 0.3 | 0.438 |  | 0.403 | 0.374 | 0.53 | 0.574 | 0.716 | 0.436
16 | SW 1573 | 0.57 | 1.18 | 0.947 | 0.658 | 0.305 | 0.715 | 1.12 | 0.535 | 0.305 | 0.472 | 0.499 | 0.406 | 0.197 | 0.339 | 0.801 | 0.446 | 0.367
17 | UMC-11 | 0.361 | 0.312 | 0.39 | 0.304 | 0.127 | 0.319 | 0.384 | 0.426 | 0.413 | 0.558 | 0.813 | 0.625 | 0.54 | 0.486 | 0.507 | 0.394 | 0.505
